Source: US5173416A, “L-carnitine dehydrogenase from alcalgenes” (Toyo Jozo Kabushiki Kaisha, priority 1989, dated 1992)
Where two headings read alike, the source gives them in different places.

Tested on: L-carnitine dehydrogenase from Alcaligenes sp. No. 981 (FERM BP-2570)
Assay: Km determination of L-carnitine dehydrogenase (diaphorase/NBT coupled reaction mixture)
Format: biochemical
Protocol: Km-value for NAD^+ is measured in various concentrations of NAD^+ in a reaction mixture of:
100 mM Tris-HCl buffer (pH 9.0)
5 U diaphorase (Toyo Jozo Co.)
0.025% NBT (Wako Pure Chem. Co.)
1% Tween 80 (Wako Pure Chem. Co.) and
In the reaction mixture, 50 mM L-carnitine is replaced by 1 mM NAD^+, and the concentration of L-carnitine is varied to measure the Km-value of L-carnitine.
The results are as shown above.

Km (100 mM Tris-HCl buffer pH 9.0, 50 mM L-carnitine, NAD+ concentration varied, read-out: Km-value (NAD+))	SMILES	Km (100 mM Tris-HCl buffer pH 9.0, 1 mM NAD+, L-carnitine concentration varied, read-out: Km-value (L-carnitine))
0.141 mM	NC(=O)c1ccc[n+]([C@@H]2O[C@H](COP(=O)([O-])OP(=O)(O)OC[C@H]3O[C@@H](n4cnc5c(N)ncnc54)[C@H](O)[C@@H]3O)[C@@H](O)[C@H]2O)c1 [NAD^+]	
	C[N+](C)(C)C[C@H](O)CC(=O)[O-] [L-carnitine]	9.3 mM
